{
  "source": "patent US10822325B2",
  "about": "“Human GLUT5 specific inhibitors and methods of treatment” (UNM RAINFOREST INNOVATIONS, priority 2015, dated 2020)",
  "key": {"[1]": {"target": "T1, human GLUT2 (Homo sapiens, UniProt P11168)", "T1 construct": "Full length DNA was subcloned into pFastBac1 (Life Technologies) vector with a N-terminal hexahistidine tag; hexahistidine (N); made in house; host or cells: Sf21 insect cells (baculovirus, pFastBac1)", "T1 sequence (P11168 1-524)": "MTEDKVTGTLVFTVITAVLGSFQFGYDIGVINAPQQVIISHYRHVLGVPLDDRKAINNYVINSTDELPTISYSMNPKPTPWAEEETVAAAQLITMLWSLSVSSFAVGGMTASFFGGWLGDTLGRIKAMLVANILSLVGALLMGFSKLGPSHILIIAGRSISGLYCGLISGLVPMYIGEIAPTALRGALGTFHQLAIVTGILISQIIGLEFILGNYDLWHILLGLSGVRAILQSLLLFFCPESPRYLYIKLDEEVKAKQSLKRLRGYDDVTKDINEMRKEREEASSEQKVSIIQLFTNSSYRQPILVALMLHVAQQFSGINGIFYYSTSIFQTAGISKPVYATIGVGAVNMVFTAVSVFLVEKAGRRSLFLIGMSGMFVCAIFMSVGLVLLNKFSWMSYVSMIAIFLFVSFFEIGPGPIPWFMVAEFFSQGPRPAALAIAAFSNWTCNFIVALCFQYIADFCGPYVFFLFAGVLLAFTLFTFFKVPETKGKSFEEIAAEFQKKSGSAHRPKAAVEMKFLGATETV", "assay": "Glucose or fructose entrance counter-flow transport in GLUT2 proteoliposomes", "type": "biochemical", "settings": "2 mM compound", "procedure": "(§1) cDNAs of GLUT1, 3, 4 and 5 were purchased from Open Biosystems (GE Healthcare). cDNAs of GLUT2 was a gift from Prof. Graeme Bell at University of Chicago. Full length DNA was subcloned into pFastBac1 (Life Technologies) vector with a N-terminal hexahistidine tag. Bacmids were generated in DH10Bac E. coli cells (Life Technologies). Baculoviruses were produced using Cellfectin II Reagent and amplified in Sf21 insect cells (Life Technologies). Cells were maintained at 26° C., and P1 (10^6 pfu/mL) was collected from infected cells after 72 hours. SF21 cells were propagated in HyClone SFX-Insect media (GE Healthcare), supplemented with 5% fetal bovine serum (Biowest), 4.8 mM glutamine, antibiotics (100 units/mL Penicillin G and 100 μg/mL streptomycin sulfate) and amphotericin B (2.5 μg/mL). […]\n(§2) For the entrance counterflow transport in proteoliposomes, the assay was started by the addition of 5 μL proteoliposomes solution (OD600 nm ˜30) to 200 μL, assay solution, containing 10 μM ^14C-radiolabeled glucose (for GLUT1 wild-type or F379H mutant and GLUT2-4) or fructose (for GLUT5 wild-type or H387F mutant and GLUT2) (Moravek Biochemicals) in 100 mM KPi buffer at pH 7.5. After one minute (or different specified time points when the time-dependent counter-flow transport activity was measured), the transport was stopped with ice-chilled quench buffer [0.1 M KPi (pH 5.5) and 0.1 M lithium chloride]. […]"}, "[2]": {"target": "T2, human GLUT4 (Homo sapiens, UniProt P14672)", "T2 construct": "Full length DNA was subcloned into pFastBac1 (Life Technologies) vector with a N-terminal hexahistidine tag; hexahistidine (N); made in house; host or cells: Sf21 insect cells (baculovirus, pFastBac1)", "T2 sequence (P14672 1-509)": "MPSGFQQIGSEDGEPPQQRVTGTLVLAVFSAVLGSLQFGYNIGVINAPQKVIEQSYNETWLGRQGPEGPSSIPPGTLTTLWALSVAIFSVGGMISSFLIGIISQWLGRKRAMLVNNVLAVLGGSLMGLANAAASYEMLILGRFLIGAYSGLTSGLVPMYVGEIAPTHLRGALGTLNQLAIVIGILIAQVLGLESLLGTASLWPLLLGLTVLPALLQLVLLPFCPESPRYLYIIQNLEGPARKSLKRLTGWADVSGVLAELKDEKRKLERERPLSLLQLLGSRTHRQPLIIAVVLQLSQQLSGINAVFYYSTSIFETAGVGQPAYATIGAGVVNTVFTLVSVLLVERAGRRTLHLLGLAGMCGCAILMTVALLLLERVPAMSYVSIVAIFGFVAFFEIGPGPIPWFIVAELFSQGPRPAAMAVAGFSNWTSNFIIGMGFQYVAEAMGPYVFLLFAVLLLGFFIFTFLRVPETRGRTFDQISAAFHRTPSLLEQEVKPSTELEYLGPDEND", "assay": "Glucose entrance counter-flow transport in GLUT4 proteoliposomes", "type": "biochemical", "settings": "2 mM compound", "procedure": "as §1, §2"}},
  "note": "“Also recorded” adds a separate entry of the source.",
  "data": [
    {"molecule": "CS(=O)(=O)c1ccc(Nc2ccc3c(c2)OCO3)c([N+](=O)[O-])c1", "note": "[MSNBA, N-[4-(methylsulfonyl)-2-nitrophenyl]-1,3-benzodioxol-5-amine]", "values": [
      {"measurement": "effect on GLUT2 fructose transport", "setting": "[1]; fructose as substrate", "value": "did not affect; also recorded: did not influence"},
      {"measurement": "effect on GLUT2 glucose transport", "setting": "[1]; glucose as substrate", "value": "did not influence; also recorded: did not affect"},
      {"measurement": "effect on GLUT4 glucose transport", "setting": "[2]", "value": "did not affect; also recorded: did not influence"}
    ]}
  ]
}
